Measured values as given in patent US20250282799A1, “SUBSTITUTED PYRIDO[4,3-d]PYRIMIDINES AS KRAS MODULATORS” (Alterome Therapeutics, Inc., priority 2023, published 2025).

tested on: KRAS G12V dependent lung adenocarcinoma cell line, NCI-H441; assay: Cellular pERK (Thr202/Tyr204) FRET/HTRF assay; format: cell-based; conditions: Homo sapiens, NCI-H441, cellular pERK (Thr202/Tyr204) HTRF, NCI-H441 cells
In short: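 Phospho-ERK1/2 (Thr202/Tyr204) quantified by two-antibody HTRF in lysed NCI-H441 cells. Cells seeded overnight, treated with test compounds for 1 hr at 37 °C against DMSO control, then lysed and detected at room temperature; IC50 obtained by curve fitting.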

Question: Which IC50 does the source give for `[2H]C([2H])(Oc1nc(N2CCCC[C@H]3[C@H](F)[C@H]32)c2cnc(-c3cc(N)cc4c(F)cc(F)c(C#C)c34)c(F)c2n1)[C@@]12CCCN1C[C@H](F)C2` [Example 96, 5-ethynyl-6,8-difluoro-4-(8-fluoro-4-((1S,7R,8S)-8-fluoro-2-azabicyclo[5.1.0]octan-2-yl)-2-(((2R,7aS)-2-fluorotetrahydro-1H-pyrrolizin-7a(5H)-yl)methoxy-d2)pyrido[4,3-d]pyrimidin-7-yl)naphthalen-2-amine] here?
Answer: Its IC50 is less than 0.05 µM.

Question: With `C#Cc1c(F)ccc2cc(N)cc(-c3ncc4c(N5CCOC[C@H]6[C@H](F)[C@H]65)nc(OC[C@]56CC(=C)CN5CCC65CC5)nc4c3C)c12` [Example 429, 5-ethynyl-6-fluoro-4-(4-((1S,7S,8S)-8-fluoro-5-oxa-2-azabicyclo[5.1.0]octan-2-yl)-8-methyl-2-(((R)-6′-methylenetetrahydrospiro[cyclopropane-1,1′-pyrrolizin]-7a′(5′H)-yl)methoxy)pyrido[4,3-d]pyrimidin-7-yl)naphthalen-2-amine] as the molecule, how does the IC50 read?
Answer: The IC50 was less than 0.05 µM.

Question: With `[2H]C([2H])(Oc1nc(N2CCOC[C@H]3[C@H](F)[C@H]32)c2cc(Cl)c(-c3cc(N)cc(C4CC4)c3C(F)(F)F)c(F)c2n1)[C@@]12CCCN1C[C@H](F)C2` [Example 183, 3-(6-chloro-8-fluoro-4-((1S,7S,8S)-8-fluoro-5-oxa-2-azabicyclo[5.1.0]octan-2-yl)-2-(((2R,7aS)-2-fluorotetrahydro-1H-pyrrolizin-7a(5H)-yl)methoxy-d2)quinazolin-7-yl)-5-cyclopropyl-4-(trifluoromethyl)aniline] as the molecule, how does the IC50 read?
Answer: Its IC50 is 0.5 to 10 µM.

Question: Which IC50 does the source give for `C#Cc1c(F)ccc2cc(N)cc(-c3ncc4c(N5CCOC[C@H]6[C@H](F)[C@H]65)nc(OC[C@@]56CCCN5CC(=C)C6)nc4c3F)c12` [Example 158, 5-Ethynyl-6-fluoro-4-(8-fluoro-4-((1S,7S,8S)-8-fluoro-5-oxa-2-azabicyclo[5.1.0]octan-2-yl)-2-(((S)-2-methylenetetrahydro-1H-pyrrolizin-7a(5H)-yl)methoxy)pyrido[4,3-d]pyrimidin-7-yl)naphthalen-2-amine] here?
Answer: The IC50 was less than 0.05 µM.

Question: With `[2H]C([2H])(Oc1nc(N2CCCC[C@H]3[C@H](F)[C@H]32)c2cnc(-c3cncc4ccc(F)c(C#C)c34)c(F)c2n1)[C@@]12CCCN1C[C@H](F)C2` [Example 97, 7-(5-Ethynyl-6-fluoroisoquinolin-4-yl)-8-fluoro-4-((1S,7R,8S)-8-fluoro-2-azabicyclo[5.1.0]octan-2-yl)-2-(((2R,7aS)-2-fluorotetrahydro-1H-pyrrolizin-7a(5H)-yl)methoxy-d2)pyrido[4,3-d]pyrimidine] as the molecule, how does the IC50 read?
Answer: The IC50 was less than 0.05 µM.

Question: Which IC50 does the source give for `[2H]C([2H])([2H])Oc1c(F)c(F)c(F)c2cc(N)cc(-c3ncc4c(N5CCOC[C@H]6[C@H](F)[C@H]65)nc(OC[C@@]56CCCN5CC(=C(F)F)C6)nc4c3F)c12` [Example 142, 4-(2-(((S)-2-(difluoromethylene)tetrahydro-1H-pyrrolizin-7a(5H)-yl)methoxy)-8-fluoro-4-((1S,7S,8S)-8-fluoro-5-oxa-2-azabicyclo[5.1.0]octan-2-yl)pyrido[4,3-d]pyrimidin-7-yl)-6,7,8-trifluoro-5-(methoxy-d3)naphthalen-2-amine] here?
Answer: The IC50 was less than 0.05 µM.

Question: With `C=C1CN2CCC[C@@]2(COc2nc(N3CCCC[C@@H]4[C@@H](F)[C@@H]43)c3cnc(-c4cc(N)cc(Cl)c4C(F)(F)F)c(F)c3n2)C1` [Example 368, 3-chloro-5-(8-fluoro-4-((1R,7S,8R)-8-fluoro-2-azabicyclo[5.1.0]octan-2-yl)-2-(((S)-2-methylenetetrahydro-1H-pyrrolizin-7a(5H)-yl)methoxy)pyrido[4,3-d]pyrimidin-7-yl)-4-(trifluoromethyl)aniline] as the molecule, how does the IC50 read?
Answer: Its IC50 is 0.5 to 10 µM.

Question: How did the IC50 turn out when `[2H]C([2H])(Oc1nc(N2CCOC[C@H]3[C@H](F)[C@H]32)c2ccc(-c3cc(N)cc(C)c3C(F)(F)F)c(F)c2n1)[C@@]12CCCN1C[C@H](F)C2` [Example 180, 3-(8-fluoro-4-((1S,7S,8S)-8-fluoro-5-oxa-2-azabicyclo[5.1.0]octan-2-yl)-2-(((2R,7aS)-2-fluorotetrahydro-1H-pyrrolizin-7a(5H)-yl)methoxy-d2)quinazolin-7-yl)-5-methyl-4-(trifluoromethyl)aniline] was run?
Answer: The IC50 was 0.5 to 10 µM.

Question: With `[2H]C([2H])(Oc1nc(N2CCOC[C@H]3[C@H](F)[C@H]32)c2cnc(-c3cc(N)cc(Cl)c3C(F)(F)F)c(F)c2n1)[C@@]12CCCN1C[C@H](F)C2` [Example 272, 3-chloro-5-(8-fluoro-4-((1S,7S,8S)-8-fluoro-5-oxa-2-azabicyclo[5.1.0]octan-2-yl)-2-(((2R,7aS)-2-fluorotetrahydro-1H-pyrrolizin-7a(5H)-yl)methoxy-d2)pyrido[4,3-d]pyrimidin-7-yl)-4-(trifluoromethyl)aniline] as the molecule, how does the IC50 read?
Answer: The IC50 was less than 0.05 µM.

Question: With `C#Cc1c(F)ccc2cccc(-c3ncc4c(N5CCOC[C@H]6[C@H](F)[C@H]65)nc(OC[C@]56CCCN5CC(=C(F)F)C6)nc4c3F)c12` [Example 104, (1S,7S,8S)-2-(2-(((R)-2-(difluoromethylene)tetrahydro-1H-pyrrolizin-7a(5H)-yl)methoxy)-7-(8-ethynyl-7-fluoronaphthalen-1-yl)-8-fluoropyrido[4,3-d]pyrimidin-4-yl)-8-fluoro-5-oxa-2-azabicyclo[5.1.0]octane] as the molecule, how does the IC50 read?
Answer: The IC50 was less than 0.05 µM.

Question: With `[2H]C([2H])(Oc1nc(N2CCOC[C@H]3[C@H](Cl)[C@H]32)c2cnc(-c3cc(N)cc4ccc(C)c(C#C)c34)c(F)c2n1)[C@@]12CCCN1[C@H](C)[C@H](F)C2` [Example 366, 4-(4-((1S,7S,8S)-8-chloro-5-oxa-2-azabicyclo[5.1.0]octan-2-yl)-8-fluoro-2-(((2R,3R,7aS)-2-fluoro-3-methyltetrahydro-1H-pyrrolizin-7a(5H)-yl)methoxy-d2)pyrido[4,3-d]pyrimidin-7-yl)-5-ethynyl-6-methylnaphthalen-2-amine] as the molecule, how does the IC50 read?
Answer: The IC50 was less than 0.05 µM.

same assay, conditions: Homo sapiens, NCI-H441, cellular pERK HTRF, NCI-H441 (KRAS G12V) cells

Question: How did the IC50 turn out when `[2H]C([2H])(Oc1nc(N2CCOC[C@H]3[C@H](F)[C@H]32)c2cc(Cl)c(-c3ccc(F)c4sc(N)c(C#N)c34)c(C)c2n1)[C@@]12CCCN1C[C@H](F)C2` [Example 470, 2-amino-4-(6-chloro-4-((1S,7S,8S)-8-fluoro-5-oxa-2-azabicyclo[5.1.0]octan-2-yl)-2-(((2R,7aS)-2-fluorotetrahydro-1H-pyrrolizin-7a(5H)-yl)methoxy-d2)-8-methylquinazolin-7-yl)-7-fluorobenzo[b]thiophene-3-carbonitrile] was run?
Answer: Its IC50 is less than 0.05 µM.

Question: `[2H]C([2H])(Oc1nc(N2CCOC[C@H]3[C@H](F)[C@H]32)c2cnc(-c3cc(N)cc4ccc(F)c(C#C)c34)c(C=C)c2n1)[C@@]12CCCN1C[C@H](F)C2` [Example 455, 5-ethynyl-6-fluoro-4-(4-((1S,7S,8S)-8-fluoro-5-oxa-2-azabicyclo[5.1.0]octan-2-yl)-2-(((2R,7aS)-2-fluorotetrahydro-1H-pyrrolizin-7a(5H)-yl)methoxy-d2)-8-vinylpyrido[4,3-d]pyrimidin-7-yl)naphthalen-2-amine] was tested. Which IC50 did it give?
Answer: Its IC50 is less than 0.05 µM.

same assay, conditions: Homo sapiens, NCI-H441, pERK HTRF, NCI-H441 cells (KRAS G12V)

Question: How did the IC50 turn out when `[2H]C([2H])(F)Oc1c(F)ccc2cccc(-c3ncc4c(N5CCOC[C@H]6[C@H](F)[C@H]65)nc(OC([2H])([2H])[C@@]56CCCN5C[C@H](F)C6)nc4c3F)c12` [Example 80, (1S,7S,8S)-8-Fluoro-2-(8-fluoro-7-(7-fluoro-8-(fluoromethoxy-d2)naphthalen-1-yl)-2-(((2R,7aS)-2-fluorotetrahydro-1H-pyrrolizin-7a(5H)-yl)methoxy-d2)pyrido[4,3-d]pyrimidin-4-yl)-5-oxa-2-azabicyclo[5.1.0]octane] was run?
Answer: The IC50 was less than 0.05 µM.

Question: With `[2H]C([2H])(Oc1nc(N2CCO[C@@H]3C[C@@H]32)c2cnc(-c3cc(N)cc4cc(F)c(F)c(C#C)c34)c(F)c2n1)[C@@]12CCCN1C[C@H](F)C2` [Example 31, 4-(4-((1R,6S)-2-Oxa-5-azabicyclo[4.1.0]heptan-5-yl)-8-fluoro-2-(((2R,7aS)-2-fluorotetrahydro-1H-pyrrolizin-7a(5H)-yl)methoxy-d2)pyrido[4,3-d]pyrimidin-7-yl)-5-ethynyl-6,7-difluoronaphthalen-2-amine] as the molecule, how does the IC50 read?
Answer: Its IC50 is 0.05 to 0.5 µM.

Question: How did the IC50 turn out when `[2H]C([2H])(Oc1nc(N2CCOC[C@@H]3[C@@H](F)[C@@H]32)c2cnc(-c3cc(N)cc4cc(F)c(F)c(C#C)c34)c(F)c2n1)[C@@]12CCCN1C[C@H](F)C2` [Example 27, 5-Ethynyl-6,7-difluoro-4-(8-fluoro-4-((1R,7R,8R)-8-fluoro-5-oxa-2-azabicyclo[5.1.0]octan-2-yl)-2-(((2R,7aS)-2-fluorotetrahydro-1H-pyrrolizin-7a(5H)-yl)methoxy-d2)pyrido[4,3-d]pyrimidin-7-yl)naphthalen-2-amine] was run?
Answer: Its IC50 is 0.05 to 0.5 µM.

Question: Which IC50 does the source give for `[2H]C([2H])(Oc1nc(N2CCO[C@H]3[C@H](F)[C@H]32)c2cnc(-c3cc(N)cc4cc(F)c(F)c(C#C)c34)c(F)c2n1)[C@@]12CCCN1C[C@H](F)C2` [Example 38, 5-Ethynyl-6,7-difluoro-4-(8-fluoro-4-((1R,6S,7R)-7-fluoro-2-oxa-5-azabicyclo[4.1.0]heptan-5-yl)-2-(((2R,7aS)-2-fluorotetrahydro-1H-pyrrolizin-7a(5H)-yl)methoxy-d2)pyrido[4,3-d]pyrimidin-7-yl)naphthalen-2-amine] here?
Answer: Its IC50 is less than 0.05 µM.

same assay, conditions: cellular pERK HTRF, NCI-H441 (KRAS G12V) cells

Question: With `[2H]C([2H])(Oc1nc(N2CCOC[C@H]3[C@H](F)[C@H]32)c2cc(C#N)c(-c3ccc(F)c4sc(N)c(C#N)c34)c(C)c2n1)[C@@]12CCCN1C[C@H](F)C2` (atropisomer, axis not shown; (aS)) [Example 440, (R)-7-(2-amino-3-cyano-7-fluorobenzo[b]thiophen-4-yl)-4-((1S,7S,8S)-8-fluoro-5-oxa-2-azabicyclo[5.1.0]octan-2-yl)-2-(((2R,7aS)-2-fluorotetrahydro-1H-pyrrolizin-7a(5H)-yl)methoxy-d2)-8-methylquinazoline-6-carbonitrile] as the molecule, how does the IC50 read?
Answer: The IC50 was less than 0.05 µM.
